In patent US20070082880A1 (priority 2005, published 2007):

Columns and labels:
PKCθ = PKCθ (Homo sapiens, UniProt Q04759); assay: PKCθ Scintiplate Assay; type: biochemical; details: average value when one or more samples were tested
Method: This assay detects the phosphorylation of a biotinylated substrate by kinase utilizing radiolabeled ATP (ATP γ P33). The enzyme is either recombinant full length PKCθ (Panvera, P2996) or the purified recombinant active kinase domain of full length PKCθ (amino acids 362-706). The substrate in this assay is a biotinylated peptide with a sequence of biotin-[…]-CONH2. The assay buffer is composed of 100 mM Hepes, pH7.5, 2 mM MgCl2, 20 mM β-glycerophosphate and 0.008% TritonX 100. A reaction mixture of ATP, ATP γ P33 (PerkinElmer), DTT, lipid activator, and the enzyme is prepared in the assay buffer and added to a 96 well polypropylene plate. The compound (diluted in DMSO in a separate 96-well polypropylene plate) is added to the reaction mixture and incubated at room temperature. Following the incubation, the peptide substrate is added to the reaction mixture to initiate the enzymatic reaction. The reaction is terminated with the addition of a stop solution (10 mM EDTA, 0.2% TritonX100, and 100 mM NaHPO4) and transferred from the assay plate to a washed streptavidin-coated 96 well scintiplate (PerkinElmer). The scintiplate is incubated at room temperature, washed in PBS with 0.1% TritonX 100, and counted in the 1450 Microbeta Trilux (Wallac, Version 2.60). Counts are recorded for each well as corrected counts per minute (CCPM). The counts are considered corrected because they are adjusted according to a P33 normalization protocol, which corrects for efficiency and background differences between the instrument detectors (software version 4.40.01).

[1] = biological target: T1, human PKCθ full length enzyme (Homo sapiens, UniProt Q04759); assay: PKCθ IMAP Assay; type: biochemical; details: average value when one or more samples were tested; ATP 6 uM, PKCθ 1 nM
T1 construct: human PKCθ full length enzyme (Panvera Catalog No. P2996); purchased Panvera P2996
T1 sequence (Q04759 whole entry): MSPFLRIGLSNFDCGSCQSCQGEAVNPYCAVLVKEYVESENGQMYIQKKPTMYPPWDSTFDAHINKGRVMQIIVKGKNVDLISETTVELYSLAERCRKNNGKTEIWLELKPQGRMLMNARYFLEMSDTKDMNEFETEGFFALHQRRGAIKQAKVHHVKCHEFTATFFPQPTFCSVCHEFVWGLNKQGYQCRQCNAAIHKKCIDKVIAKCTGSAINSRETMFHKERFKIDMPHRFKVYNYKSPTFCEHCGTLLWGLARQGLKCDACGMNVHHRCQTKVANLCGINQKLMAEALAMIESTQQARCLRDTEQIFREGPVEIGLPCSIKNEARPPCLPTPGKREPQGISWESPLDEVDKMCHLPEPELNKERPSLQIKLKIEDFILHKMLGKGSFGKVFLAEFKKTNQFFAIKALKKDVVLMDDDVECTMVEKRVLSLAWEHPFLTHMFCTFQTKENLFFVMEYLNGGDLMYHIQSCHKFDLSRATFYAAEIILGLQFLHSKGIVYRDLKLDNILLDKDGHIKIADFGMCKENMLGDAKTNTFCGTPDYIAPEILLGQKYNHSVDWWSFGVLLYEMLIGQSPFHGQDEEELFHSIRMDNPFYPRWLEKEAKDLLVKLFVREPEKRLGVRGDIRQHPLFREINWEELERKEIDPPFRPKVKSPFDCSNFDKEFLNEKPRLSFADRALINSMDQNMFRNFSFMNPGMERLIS
In short: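 IMAP fluorescence polarization after 20 min with binding beads measured phosphorylation of 100 nM 5FAM-peptide. Reactions held 1 nM full-length human PKCθ, 6 uM ATP, 5% DMSO and DTT-containing buffer, 25 min at room temperature. Compounds tested as 2:1 serial dilutions; controls lacked ATP or enzyme.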

Sequence of PKCθ (Q04759 362-706 limits assumed): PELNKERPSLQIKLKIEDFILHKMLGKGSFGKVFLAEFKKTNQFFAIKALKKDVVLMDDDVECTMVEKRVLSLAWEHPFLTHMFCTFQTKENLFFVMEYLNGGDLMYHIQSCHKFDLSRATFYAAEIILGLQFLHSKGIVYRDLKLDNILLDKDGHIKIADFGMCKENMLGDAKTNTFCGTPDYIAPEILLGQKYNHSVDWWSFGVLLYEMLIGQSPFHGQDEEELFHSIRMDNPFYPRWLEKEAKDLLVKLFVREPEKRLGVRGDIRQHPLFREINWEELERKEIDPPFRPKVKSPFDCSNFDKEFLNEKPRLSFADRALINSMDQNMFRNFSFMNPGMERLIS

IC50 (PKCθ)	IC50 [1]	melting point	SMILES
88 nM	77 nM		N#Cc1cnc2sc(-c3cccc(CN(CCO)CCO)c3)cc2c1Nc1ccc2[nH]ccc2c1 [Compound 151, 2-(3-{[bis(2-hydroxyethyl)amino]methyl}phenyl)-4-(1H-indol-5-ylamino)thieno[2,3-b]pyridine-5-carbonitrile]
2100 nM			N#Cc1cnc2sc(-c3ccc(N4CCOCC4)cc3)cc2c1Nc1ccc2[nH]ccc2c1 [Compound 189, 4-(1H-indol-5-ylamino)-2-(4-morpholin-4-ylphenyl)thieno[2,3-b]pyridine-5-carbonitrile]
220 nM	440 nM		CCN(CC)CC#Cc1cc2c(Nc3ccc4[nH]ccc4c3)c(C#N)cnc2s1 [Compound 225, 2-[3-(diethylamino)prop-1-yn-1-yl]-4-(1H-indol-5-ylamino)thieno[2,3-b]pyridine-5-carbonitrile]
90 nM			CN1CCN(Cc2cccc(-c3cc4c(Nc5ccc6[nH]ccc6c5)c(C#N)cnc4s3)c2)CC1 [Compound 145, 4-(1H-indol-5-ylamino)-2-{3-[(4-methylpiperazin-1-yl)methyl]phenyl}thieno[2,3-b]pyridine-5-carbonitrile]
500 nM			N#Cc1cnc2sc(C#Cc3ccccc3)cc2c1Nc1ccc2[nH]ccc2c1 [Compound 215, 4-(1H-indol-5-ylamino)-2-(phenylethynyl)thieno[2,3-b]pyridine-5-carbonitrile]
16 nM	190 nM		N#Cc1cnc2sc(C#Cc3cccnc3)cc2c1Nc1ccc2[nH]ccc2c1 [Compound 214, 4-(1H-indol-5-ylamino)-2-(pyridin-3-ylethynyl)thieno[2,3-b]pyridine-5-carbonitrile]
34 nM	52 nM		N#Cc1cnc2sc(C#Cc3cccnc3)cc2c1Nc1cccc2[nH]ccc12 [Compound 218, 4-(1H-indol-4-ylamino)-2-(pyridin-3-ylethynyl)thieno[2,3-b]pyridine-5-carbonitrile]
60 nM	73 nM		N#Cc1cnc2sc(-c3cccc(CN4CCN(CCO)CC4)c3)cc2c1Nc1ccc2[nH]ccc2c1 [Compound 148, 2-(3-{[4-(2-hydroxyethyl)piperazin-1-yl]methyl}phenyl)-4-(1H-indol-5-ylamino)thieno[2,3-b]pyridine-5-carbonitrile]
190 nM			N#Cc1cnc2sc(-c3ccc(CN4CCOCC4)cc3)cc2c1Nc1cccc2[nH]ccc12 [Compound 138, 4-(1H-indol-4-ylamino)-2-[4-(morpholin-4-ylmethyl)phenyl]thieno[2,3-b]pyridine-5-carbonitrile]
310 nM			N#Cc1cnc2sc(-c3cccc(CN4CCN(CCc5ccccc5)CC4)c3)cc2c1Nc1ccc2[nH]ccc2c1 [Compound 152, 4-(1H-indol-5-ylamino)-2-(3-{[4-(2-phenylethyl)piperazin-1-yl]methyl}phenyl)thieno[2,3-b]pyridine-5-carbonitrile]
290 nM	1600 nM		N#Cc1cnc2sc(-c3ccccc3CN3CCC(O)CC3)cc2c1Nc1ccc2[nH]ccc2c1 [Compound 186, 2-{2-[(4-hydroxypiperidin-1-yl)methyl]phenyl}-4-(1H-indol-5-ylamino)thieno [2,3-b]pyridine-5-carbonitrile]
90 nM	320 nM		CN1CCN(Cc2cccc(C#Cc3cc4c(Nc5ccc6[nH]ccc6c5)c(C#N)cnc4s3)n2)CC1 [Compound 216, 4-(1H-indol-5-ylamino)-2-({6-[(4-methylpiperazin-1-yl)methyl]pyridin-2-yl}ethynyl)thieno[2,3-b]pyridine-5-carbonitrile]
34 nM	82 nM		CN(C)Cc1ccc(-c2cc3c(Nc4ccc5[nH]ccc5c4)c(C#N)cnc3s2)s1 [Compound 211, 2-{5-[(dimethylamino)methyl]-2-thienyl}-4-(1H-indol-5-ylamino)thieno[2,3-b]pyridine-5-carbonitrile]
2700 nM	1900 nM		Cc1cc2cc(Nc3c(C#N)cnc4sc(-c5ccccc5)cc34)ccc2[nH]1 [Compound 118, 4-[(2-methyl-1H-indol-5-yl)amino]-2-phenylthieno[2,3-b]pyridine-5-carbonitrile]
28 nM	60 nM		Cc1c(Nc2c(C#N)cnc3sc(-c4ccccc4)cc23)ccc2[nH]ccc12 [Compound 117, 4-[(4-methyl-1H-indol-5-yl)amino]-2-phenylthieno[2,3-b]pyridine-5-carbonitrile]
50 nM	100 nM		CN(C)Cc1nc(-c2cc3c(Nc4ccc5[nH]ccc5c4)c(C#N)cnc3s2)cs1 [Compound 208, 2-{2-[(dimethylamino)methyl]-1,3-thiazol-4-yl}-4-(1H-indol-5-ylamino)thieno[2,3-b]pyridine-5-carbonitrile]
4.5 nM	8 nM		Cc1c(Nc2c(C#N)cnc3sc(-c4cccc(CN(C)C)c4)cc23)ccc2[nH]ccc12 [Compound 187, 2-{3-[(dimethylamino)methyl]phenyl}-4-[(4-methyl-1H-indol-5-yl)amino]thieno[2,3-b]pyridine-5-carbonitrile]
7300 nM			CN1CCN(Cc2ccc(-c3cc4c(NCCc5c[nH]cn5)c(C#N)cnc4s3)cc2)CC1 [Compound 128, 4-{[2-(1H-imidazol-4-yl)ethyl]amino}-2-{4-[(4-methylpiperazin-1-yl)methyl]phenyl}thieno[2,3-b]pyridine-5-carbonitrile]
> 200000 nM			Cn1ccc2cc(Nc3c(C#N)cnc4sc(-c5ccccc5)cc34)ccc21 [Compound 134, 4-[(1-methyl-1H-indol-5-yl)amino]-2-phenylthieno[2,3-b]pyridine-5-carbonitrile]
120000 nM			Cc1cc(Nc2c(C#N)cnc3sc(-c4ccccc4)cc23)cc2cc[nH]c12 [Compound 120, 4-[(7-methyl-1H-indol-5-yl)amino]-2-phenylthieno[2,3-b]pyridine-5-carbonitrile]
580 nM			CN1CCN(Cc2ncc(-c3cc4c(Nc5ccc6[nH]ccc6c5)c(C#N)cnc4s3)n2C)CC1 [Compound 210]
190 nM			CCN1CCN(CC/C=C/c2cc3c(Nc4ccc5[nH]ccc5c4)c(C#N)cnc3s2)CC1 [Compound 190, 2-[(1E)-4-(4-ethylpiperazin-1-yl)but-1-en-1-yl]-4-(1H-indol-5-ylamino)thieno[2,3-b]pyridine-5-carbonitrile]
45 nM			CN(C)CCc1ccc(-c2cc3c(Nc4ccc5[nH]ccc5c4)c(C#N)cnc3s2)cc1 [Compound 192, 2-{4-[2-(dimethylamino)ethyl]phenyl}-4-(1H-indol-5-ylamino)thieno[2,3-b] pyridine-5-carbonitrile]
280 nM			CN1CCN(Cc2ccc(-c3cc4c(Nc5ccc6[nH]ccc6c5)c(C#N)cnc4s3)cc2)CC1 [Compound 104, 4-(1H-indol-5-ylamino)-2-{4-[(4-methylpiperazin-1-yl)methyl]phenyl}thieno[2,3-b]pyridine-5-carbonitrile]
77 nM			CN(C)Cc1ccc(-c2cc3c(Nc4ccc5[nH]ccc5c4)c(C#N)cnc3s2)cc1 [Compound 105, 2-{4-[(dimethylamino)methyl]phenyl}-4-(1H-indol-5-ylamino)thieno[2,3-b]pyridine-5-carbonitrile]
180 nM			Cn1cncc1-c1cc2c(Nc3ccc4[nH]ccc4c3)c(C#N)cnc2s1 [Compound 205, 4-(1H-indol-5-ylamino)-2-(1-methyl-1H-imidazol-5-yl)thieno[2,3-b]pyridine-5-carbonitrile]
> 30000 nM			N#Cc1cnc2sc(-c3ccccc3)cc2c1NCc1cccc2[nH]ccc12 [Compound 125, 4-(1H-indol-4-ylmethylamino)-2-phenylthieno[2,3-b]pyridine-5-carbonitrile]
	171 nM	216 to 218 °C	Cc1c(Nc2c(C#N)cnc3sc(C#Cc4coc(CN5CCN(C)CC5)c4)cc23)ccc2[nH]ccc12 [Compound 447, 4-[(4-methyl-1H-indol-5-yl)amino]-2-({5-[(4-methylpiperazin-1-yl)methyl]-3-furyl}ethynyl)thieno[2,3-b]pyridine-5-carbonitrile]
	83 nM	185 to 187 °C	Cc1c(Nc2c(C#N)cnc3sc(C#Cc4ccc(CN(C)C)s4)cc23)ccc2[nH]ccc12 [Compound 448, 2-({5-[(dimethylamino)methyl]-2-thienyl}ethynyl)-4-[(4-methyl-1H-indol-5-yl)amino]thieno[2,3-b]pyridine-5-carbonitrile]
9100 nM			N#Cc1cnc2sc(-c3ccccc3)cc2c1Nc1ccc2[nH]cnc2c1 [Compound 119, 4-(1H-benzimidazol-5-ylamino)-2-phenylthieno[2,3-b]pyridine-5-carbonitrile]
